According to publication PMC9822155, “Synthesis and Antiproliferative Activity against Cancer Cells of Indole-Aryl-Amide Derivatives” (Molecules, 2022):

Legend:
[1] = test system: MCF7 (human breast cancer) cells; assay: MTT viability assay, MCF7; assay type: cell-based; settings: Homo sapiens, MCF7; MTT, 24 h
Text: (§1) To investigate whether the compounds have an antitumor activity, we performed in vitro viability assays against a panel of cancer cell lines: HT29 (human colorectal adenocarcinoma), HeLa (human cervical carcinoma), IGROV-1 (human ovarian carcinoma), MCF7 (human breast cancer), PC-3 (human prostate adenocarcinoma), and Jurkat J6 (human […]). The I407 (human embryonic intestinal) and 3T3 (mouse embryonic fibroblast) cells were used as controls. The growth inhibitory concentration was determined by incubating the cells with increasing concentrations (0.01–500 μM) of the compounds for 24 h. Data obtained from cell growth assays were elaborated to assess the concentration of cell viability (IC50) and selectivity indices (SI), and the results are shown in Table 2 and Table 3, respectively.
(§2) HT29 human colorectal adenocarcinoma cells, HeLa human cervix adenocarcinoma cells, MCF7 human breast adenocarcinoma cells, PC-3 human prostate adenocarcinoma cells, J6 Jurkat Clone E6-1 acute T cell leukemia, the healthy I407 human intestine cells, and mouse embryonic fibroblast 3T3 fibroblasts as controls cell lines were purchased from American Type Culture Collection (ATCC, Manassas, VA). The human ovarian cancer cell line IGROV1 has been kindly provided by Prof. Colnaghi (Istituto Nazionale Tumori (IRCCS) (Milano, Italy). Cells were cultured in RPMI 1640 medium (Labtek Eurobio, Milan, Italy), supplemented with 10% FCS (Euroclone, Milano, Italy) and 2 mM L-glutamine (Sigma-Aldrich, Milano, Italy), at 37 °C, and a 5% CO2 atmosphere. The compounds were dissolved in DMSO in a 30–40 mM stock solution. In cell treatments, the final DMSO concentration never exceeded 0.1%.
(§3) Cells were seeded at 1.5 × 10^4 cells/well in a 96-well culture plastic plate (Sarsted, Milan, Italy), and after 24 h of growth were exposed to increasing concentrations of each distinct compound (from 0.010 μM to 500 μM) solubilized in RPMI 1640 medium. MTT assay was performed according to the literature. In brief, after 24 h of treatment, the culture medium was replaced with 0.1 mL of 3-(4,5-dimethylthiazolyl-2)-2,5-diphenyltetrazolium bromide (MTT, Sigma-Aldrich, Milano, Italy) dissolved in PBS at the concentration of 0.2 mg/mL, and samples were incubated for 2 h at 37 °C. The absorbance at 570 nm was measured using a multiwell plate reader (Tecan, Männemorf, Switzerland), and data were analyzed by Prism GraphPad software, and expressed as IC50 μM.

[2] = test system: 3T3 (mouse embryonic fibroblast) cells; assay: MTT viability assay, 3T3; assay type: cell-based; settings: 24 h, normal cells
Text: as §1, §2, §3

[3] = test system: HeLa (human cervical carcinoma) cells; assay: MTT viability assay, HeLa; assay type: cell-based; settings: Homo sapiens; MTT, 24 h
Text: as §1, §2, §3

[4] = biological target: T1, κ-OR (Homo sapiens, UniProt P41145); assay: Radioligand binding assay, κ-OR ([3H]U-69593 displacement); settings: [3H]U-69593, membranes of CHO cells with human recombinant OR; ± SEM (n ≥ 3)
T1 construct: purchased PerkinElmer (Krakow, Poland); host or cells: CHO cells (membranes)
T1 sequence (P41145 whole entry): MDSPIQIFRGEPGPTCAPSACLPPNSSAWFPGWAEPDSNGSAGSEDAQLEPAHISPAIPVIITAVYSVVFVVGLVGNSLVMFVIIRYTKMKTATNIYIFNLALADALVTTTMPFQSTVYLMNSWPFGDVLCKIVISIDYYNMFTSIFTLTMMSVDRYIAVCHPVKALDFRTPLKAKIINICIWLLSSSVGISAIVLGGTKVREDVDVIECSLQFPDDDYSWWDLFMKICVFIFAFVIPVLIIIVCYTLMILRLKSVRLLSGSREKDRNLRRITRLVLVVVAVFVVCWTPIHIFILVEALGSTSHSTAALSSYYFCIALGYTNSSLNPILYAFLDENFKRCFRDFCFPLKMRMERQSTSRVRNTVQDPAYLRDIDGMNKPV
Experimental: In order to evaluate the affinity of the compounds for μ-, δ-, κ-ORs, radioligand binding assays were performed. Displacement of radioligands, [^3H]DAMGO (μ-OR selective), [^3H]deltorphin-2 (δ-OR selective), and [^3H]U-69593 (κ-OR selective) by the synthetic analogs was investigated in the commercial membranes of CHO cells transfected with human recombinant ORs. […] Due to the modest receptor affinities, the functional activity of the compounds was not investigated.
Opioid radioligands, [^3H]DAMGO, [^3H]deltorphin-2 and [^3H]U-69593, and human recombinant opioid receptors came from PerkinElmer (Krakow, Poland). GF/B glass fiber strips were purchased from Whatman (Brentford, UK).
To determine the affinity of peptide analogs at the respective receptors, competition binding experiments were performed. Commercial membranes of CHO cells stably expressing human opioid receptors and the competing radioligands, [^3H]DAMGO, [^3H]deltorphin-2, and [^3H]U-69593 for μ-OR, δ-OR, and κ-OR, respectively, were used. Membranes were incubated in 0.5 mL volume of 50 mM Tris/HCl (pH = 7.4), 0.5% bovine serum albumin (BSA), with a number of peptidase inhibitors (bacitracin, bestatin, captopril) and various concentrations of radioligands for 2 h at 25 °C. Non-specific binding was assessed in the presence of […]. Three independent experiments for each assay were carried out in duplicate. The data were analyzed by a nonlinear least square regression analysis computer program Graph Pad PRISM 6.0 (Graph Pad Software Inc., San Diego, CA, USA). The IC50 values were determined from the logarithmic concentration-displacement curves, and the values of the inhibitory constants (Ki) were calculated according to the equation of Cheng and Prusoff.

[5] = test system: acetylated histones in HT29 cells; assay: Histone acetylation, western blot of nuclear lysates; assay type: cell-based, human; settings: HT29, 5 μM, 6 h
Experimental: In order to identify acetylated histones, we analyzed the nuclear cell lysates by western blot using a 10% polyacrylammide gel electrophoresis. […] Differences in the density of the bands are thought to reflect differences in protein acetylation levels. Histone acetylation signals were quantified by densitometry and normalized on histone H1 (Figure 5).
HT29 cells were seeded in dish and after 24 h they were treated for 6 h with compound 5 at final concentration of 5 µM. Cells were harvested, washed with 10 mM sodium butyrate in PBS, and nuclei were isolated in according to Amellem and Micheletti. The nuclear pellet was suspended in 0.1 mL ice-cold H2O using a Vortex mixer, and concentrated H2SO4 was added to the suspension to give a final concentration of 0.4 N. After incubation at 4 °C for 1 h, the suspension was centrifuged for 5 min at 14,000× g, and the supernatant was taken and mixed with 1 mL of acetone. After overnight incubation, the coagulate material was collected by microcentrifugation and air-dried. […] Proteins were quantified using a protein assay kit (Bio-Rad, Hercules, CA, USA). Histones were detected resolving samples on a 10% gel in MES buffer at 200 V for 40 min. […] After five washes with PBS-TWEEN 20 0.1%, antibody binding was detected by Amersham ECL Plus Western Blotting Detection System (GE Healthcare, Milan, Italy).

[6] = test system: IGROV-1 (human ovarian carcinoma) cells; assay: MTT viability assay, IGROV-1; assay type: cell-based; settings: 24 h
Text: as §1, §2, §3

IC50 [1]: > 500 µM
IC50 [3]: > 500 µM
Ki [4]: 3.8 ± 0.52 µM
Ki (µM) κ-OR [4]: low μM range
IC50 [6]: > 500 µM
SMILES: Nc1ccc(CN(Cc2ccc(O)cc2)C(=O)Cc2c[nH]c3ccccc23)cc1 [Compound 5]
IC50 [2]: 32 ± 0.02 µM
Histone H2/H3 acetylation [5]: did not modify the state of acetylation of H2/H3
Histone H4 acetylation [5]: induced H4 hyperacetylation
